Laboratory results: patent US9663561B2, “Methods of treatment of cancer using SRC-modulating peptides” (The University of Toledo, priority 2006, dated 2017)

How the values were obtained:
[1] = biological target: T1, Na+/K+-ATPase/Src complex (Sus scrofa, UniProt P05024); experiment: Src pY418 phosphorylation of the Na+/K+-ATPase/Src complex (Western blot); assay type: biochemical
T1 construct: Na+/K+-ATPase was purified from pig kidney outer medulla using the Jorgensen method; tissue Upstate Biotechnology (Src only); host or cells: pig kidney outer medulla (Na+/K+-ATPase)
Method: (§1) The Src kinase activity was assayed using a commercial kit (Haas et al., 2000). To determine how Na+/K+-ATPase affects Src kinase activity, the purified Src (4.5 U) was incubated with 5 μg of the purified Na+/K+-ATPase in the Src assay buffer for 30 min at room temperature. Afterward, both control Src or the Na+/K+-ATPase-bound Src were exposed to 10 μM ouabain and Src kinase activity was determined. In other experiments, the Src pY418 was measured by anti-pY418 antibody to indicate Src activation (Ma et al., 2000). To do so, the purified Src (4.5 U) was incubated with different amounts of the purified Na+/K+-ATPase or GST-Na+/K+ATPase constructs in phosphate-buffered saline (PBS) for 30 min at 37° C. Afterward, 2 mM ATP/Mg2+ was added. The reaction continued for 5 min at 37° C. and was stopped by addition of SDS sample buffer.
The purified Na+/K+-ATPase was solubilized in 1% Triton X-100 PBS and centrifuged at 100,000×g for 30 min. The supernatant was collected for the binding assay. GST-fusion proteins (5 μg) were conjugated on glutathione beads and incubated with the solubilized Na+/K+-ATPase in 500 μl PBS in the presence of 0.5% Triton X-100 at room temperature for 30 min. The beads were washed with the same buffer for four times. The bound Na+/K+ATPase was resolved on 10% SDS-PAGE and detected by Western blot. Reciprocal binding assay using GST-Na+/K+-ATPase constructs (5 μg) and purified Src lacking of first 85 amino acids (200 ng) or His-tagged Src constructs (100 ng) was done similarly. To test if native Na+/K+-ATPase binds Src, the above experiments were repeated in the absence of Triton X-100. To make the Na+/K+-ATPase/Src complex, 2-5 μg of the purified Na+/K+ATPase was incubated with 4.5 U of Src (˜10 ng) in PBS in the absence of Triton X-100 at room temperature for 30 min. The complex was either used for the experiments directly as indicated or collected by centrifugation at 100,000×g for 30 min.

[2] = biological target: T1, Na+/K+-ATPase/Src complex; experiment: Src kinase activity (commercial kit) of Na+/K+-ATPase-bound Src; assay type: biochemical; conditions: 10 μM ouabain
Method: as §1

[3] = biological target: T2, Src-ECFP and EYFP-rat α1 in LLC-PK1 cells (Rattus norvegicus, UniProt P06685); experiment: FRET analysis in live cells; assay type: cell-based, pig; conditions: 100 μM ouabain, live LLC-PK1 cell
T2 construct: expressed in transfected cells; host or cells: LLC-PK1 (pig kidney)
Method: LLC-PK1 cells were cotransfected with Src-ECFP and EYFP-rat α1 and grown on a glass coverslip for 24 h. The coverslip was then mounted in a metal chamber and analyzed with a Leica DMIRE2 confocal microscope. The laser lines of 456 nm and 515 nm were used to illuminate fluorescence, and the emission intensities were recorded at 465-509 nm for Src-ECFP and 530-570 nm for EYFP-rat α1. The cell that expresses both Src-ECFP and EYFP-rat α1 was chosen and illuminated by only 456-nm laser. The cells express only Src-ECFP or EYFP-rat α1 were used for correction and determination of the laser intensity as well as the gain and offset settings. The emission intensities for both Src-ECFP and EYFP-rat α1 in selected membrane region was recorded at 465-509 nm (FECFP) and 530-570 nm (FEYEP), respectively. The FRET efficiency was reflected by the ratio of FEYFP/FECFP. After 50 s of recording, the same cell was exposed to ouabain and the recording was continued for indicated time.

[4] = biological target: T3, GFP-canine α1 and Src-Rluc in 293T cells (Canis lupus familiaris, UniProt P50997); experiment: BRET analysis; assay type: cell-based, human
T3 construct: expressed in transfected cells; host or cells: 293T (human embryo kidney)
Method: BRET assay was done as described by Lowry et al. (2002). Briefly, 24 h after transfection with GFP-Na+/K+-ATPase and Src-Rluc or other constructs as indicated, cells were seeded in triplicate in a 96-well microplate. After treatment with indicated concentration of ouabain, cells were exposed to equal volume of BRET analysis buffer containing 10 μM DeepBlue C, the substrate of Rluc. The emission at 410 nm (for Rluc) and 515 nm (for GFP) was immediately acquired using a Fluoroskan Ascent FL (Labsystems, Franklin, Mass.) with microplate luminometric detection. The BRET ratio was calculated as follows: (Emission at 515 nm−Background at 515 nm)/(Emission at 410 nm−Background at 410 nm), where Background signal was assessed in each experiment by measuring the signal of a sample of nontransfected cells.

SYF and SYF+Src cells = experiment: Protein tyrosine phosphorylation in SYF and SYF+Src cells; assay type: cell-based, mouse; conditions: 100 μM ouabain 5 min
Method: FIG. 9B. Both SYF and SYF+Src cells were treated with 100 μM ouabain for 5 min and analyzed as in A. Representative Western blots of three experiments are shown in both A and B.
(§2) Cells were lysed in RIPA buffer containing 1% Nonidet P40, 0.25% sodium deoxycholate, 150 mM NaCl, 1 mM EDTA, 1 mM phenylmethylsulfonyl fluoride, 1 mM sodium orthovanadate, 1 mM NaF, 10 μg/ml aprotinin, 10 μg/mlleupeptin, and 50 mM Tris-HCl (pH 7.4). Cell lysates were cleared by centrifugation at 16,000×g for […], and the supernatants (1 mg) were either immunoprecipitated with anti-α1 antibody or incubated with different GST-fusion proteins. The complexes were then pulled down by either protein G agarose or glutathione beads (Ma et al., 2000; Haas et al., 2002) and analyzed by Western blot.

LLC-PK1 cells = experiment: Recruitment of Src to the Na+/K+-ATPase signaling complex (co-immunoprecipitation); assay type: cell-based, pig; conditions: 1 μM ouabain 5 min, control cells
Method: FIG. 9C Inhibition of Src blocks ouabain-induced recruitment of Src to the Na+/K+-ATPase signaling complex. LLC-PK1 cells were pretreated with 1 μM PP2 or PP3 for 15 min and then exposed to 1 μM ouabain for 5 min. Cell lysates were immunoprecipitated and analyzed. Values are mean±SE of at least four independent experiments. * p<0.05.
as §2

[5] = 10 μM ouabain 15 min before centrifugation

With `C[C@@H]1O[C@@H](O[C@H]2C[C@@H](O)[C@]3(CO)[C@H]4[C@H](O)C[C@]5(C)[C@@H](C6=CC(=O)OC6)CC[C@]5(O)[C@@H]4CC[C@]3(O)C2)[C@H](O)[C@H](O)[C@H]1O` [ouabain] the “Src pY418 of cosedimented complex” value [1, 5] was “increased the amount of Src pY418”, the “total Src cosedimented with the Na+/K+-ATPase” value [1, 5] was “no effect on total Src cosedimented” and the “Src pY418 of Na+/K+-ATPase/Src complex” value ([1]; different concentrations of ouabain, 2 mM ATP/Mg2+, 5 min) was “significantly increased the pY418 in a dose-dependent manner”. The “Src pY418 of Na+/K+-ATPase/Src complex” value ([1]; ouabain in the presence of vanadate) was “still able to stimulate pY418 of Src”, the “Src kinase activity of Na+/K+-ATPase-bound Src” value [2] was “restored the kinase activity” and the “FRET between Src-ECFP and EYFP-rat α1” value [3] was “reduction in FRET”. For the same compound, the “ouabain concentration at which significant decrease in BRET ratio was detected” value [4] was 10 nM, the BRET ratio ([4]; different concentrations of ouabain) was “dose-dependent decrease in the BRET ratio” and the “effects of ouabain on protein tyrosine phosphorylation” value (SYF and SYF+Src cells; SYF cells) was “completely abolished”. For the same compound, the “effects of ouabain on protein tyrosine phosphorylation” value (SYF and SYF+Src cells; SYF+Src cells) was “restored” and the “Src coprecipitated with α1” value (LLC-PK1 cells) was “increased coprecipitated Src”.
